The results in this text go back to patent US6566512B1, “ARV1, a protein involved in sterol uptake and sterol homeostasis in the budding yeast, S-cerevisiae, and a functional human ARV1” (The Trustees of Columbia University in the City of New York, priority 2000, dated 2003).

The assay deals with arv1D cells. As to the kind of experiment: Polyene (nystatin) sensitivity of arv1 deletion yeast, growth on plates. Format: cell-based, Saccharomyces cerevisiae. The note with it: for polyene sensitivity of yeast strains deleted for the ARV1 gene (arv1Δ): concentration not given. On the procedure: FIGS. 1A-1C arv1 mutant phenotypes. FIG. 1A, Temperature and nystatin sensitivity. 5-fold dilutions of cells were grown as indicated for three days on YEPD +/−5 μg/ml nystatin (10 mg/ml in propylene glycol). FIG. 1B, Characterization of sterol levels. Cells were labeled with [^3H]acetate and lipids extracted and analyzed by TLC. Data from three independent assays of two strains of each genotype is expressed as mean ratio over wild-type (±SEM; statistical significance by paired t-tests, *p<0.05 or **p<0.01 compared to wild-type). Hatched bars wild-type, gray bars=arv1D. FIG. 1C, Subcellular sterol accumulation. Cell membrane preparations were subjected to subcellular fractionation. Lipid composition is presented as ratio of [^3H]acetate in sterol and [^14C]oleate in phospholipids (top panels). Hatched bars=wild-type, gray bars=arv1D. Note scale differences between the upper panels. Fractions were characterized with specific antibodies against the plasma membrane ATPase (Pma1p, provided by Amy Chang), and 100 kDa subunit of integral vacuolar membrane H^+ATPase (Vph1p, Molecular Probes). Bottom panels show densitometry analysis of western blots expressed as percentage of total arbitrary units (Pma1p; closed boxes, Vph1p; open triangles). The integral ER membrane protein, dolichol phosphate mannose synthase cofractionated with Vph1p.
Mutations in sterol trafficking genes may alter membrane sterol levels. arv1D cells are sensitive to nystatin (FIG. 1a), a polyene antibiotic that disrupts membranes in part by interaction with sterols^10. Nystatin partitioning into membranes is sensitive to both sterol organization and levels^10. […] Iodine staining of sterol mass following extraction and thin layer chromatography (TLC) analysis reflected these differences (not shown).

Turning to `C[C@@H]1[C@H](O)[C@@H](C)/C=C/C=C/CC/C=C/C=C/C=C/C=C/C(O[C@H]2O[C@H](C)[C@@H](O)[C@H](N)[C@@H]2O)CC2O[C@](O)(CC(O)C(O)CCC(O)CC(O)CC(O)CC(=O)O[C@H]1C)CC(O)C2C(=O)O` (stereo partly shown) [nystatin], the “polyene sensitivity of yeast strains deleted for the ARV1 gene (arv1Δ)” value (shortened to “polyene sensitivity … (arv1Δ)”) was “sensitive”. The “sensitivity of arv1D cells to nystatin (growth, FIG. 1a)” value (5-fold dilutions of cells grown three days on YEPD +/- 5 μg/ml nystatin, compared with wild-type) is “sensitive”.
For the compound `CCCCC[C@@H](O)[C@H]1C(=O)O[C@H](C)[C@@H](O)/C=C/C=C/C=C/C=C/C=C(\C)[C@@H](O)C[C@H](O)C[C@H](O)C[C@H](O)C[C@H](O)C[C@H](O)C[C@@H]1O` [filipin], the “polyene sensitivity … (arv1Δ)” value is on record as “sensitive”.
Take `C[C@@H]1[C@H](O)[C@@H](C)/C=C/C=C/C=C/C=C/C=C/C=C/C=C/[C@H](O[C@@H]2O[C@H](C)[C@@H](O)[C@H](N)[C@@H]2O)C[C@@H]2O[C@](O)(C[C@@H](O)C[C@@H](O)[C@H](O)CC[C@@H](O)C[C@@H](O)CC(=O)O[C@H]1C)C[C@H](O)[C@H]2C(=O)O` [amphotericin B]: the “polyene sensitivity … (arv1Δ)” value is “sensitive”.
